The results in this text go back to patent US4709012A, “Novel inhibitor peptides” (Washington University, priority 1986, dated 1987).

Common to all, as to assay: Octapeptide substrate specificity / kinetic characterization with partially purified yeast myristoylating enzyme (Table II)
The target of data set [1] is T1, myristoylating enzyme from yeast (N-myristoylglycylpeptide synthetase) (Saccharomyces cerevisiae, UniProt P14743).
T1 construct: partially purified from a crude homogenate of the cultured yeast cells by fractionation with 51-70% (NH4)2 SO4; endogenous in cells; host or cells: S. cerevisiae strain JR153; ammonium sulfate cut, DEAE-Sepharose CL-6B, CoA-agarose
T1 sequence (P14743 1-455): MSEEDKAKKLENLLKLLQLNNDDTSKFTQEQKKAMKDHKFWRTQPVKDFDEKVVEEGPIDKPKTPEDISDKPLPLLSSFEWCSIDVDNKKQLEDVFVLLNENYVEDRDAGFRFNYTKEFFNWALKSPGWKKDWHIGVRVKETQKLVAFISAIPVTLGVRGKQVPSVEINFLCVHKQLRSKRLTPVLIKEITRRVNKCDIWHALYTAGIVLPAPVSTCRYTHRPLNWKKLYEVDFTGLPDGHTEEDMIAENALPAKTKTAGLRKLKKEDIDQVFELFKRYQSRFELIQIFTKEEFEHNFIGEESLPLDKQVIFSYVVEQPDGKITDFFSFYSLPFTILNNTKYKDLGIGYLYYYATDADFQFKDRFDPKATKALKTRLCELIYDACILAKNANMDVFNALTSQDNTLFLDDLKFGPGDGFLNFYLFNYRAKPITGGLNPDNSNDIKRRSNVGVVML
The format is biochemical. The settings on record: for Ki: inhibition of myristoylation of the substrate Gly-Asn-Ala-Ala-Ala-Ala-Arg-Arg. The protocol:
(§1) The synthetic octapeptide Gly-Asn-Ala-Ala-Ala-Ala-Arg-Arg was initially used to identify a unique enzymatic activity which transfers myristic acid to the amino terminal glycine of this and other peptides. […] The enzyme activity was determined in an in vitro assay which measures the transfer of [^3 H]-myristic acid to the acceptor peptide. The transfer reaction is dependent on adenosine triphosphate (ATP) and coenzyme A (CoA). The enzymatic product was then identified by high performance liquid chromatography (HPLC) by co-elution with a chemically synthesized myristoyl peptide standard. […] Both contained M-myristoyl glycine.
(§2) [^3 H]Fatty acyl CoA was synthesized enzymatically and added to the incubation as follows. The acyl CoA synthetase reaction consisted of (per one assay tube): 0.5 μCi of [^3 H]myristic acid; 25 μl of 2X assay buffer (20 mM Tris, pH 7.4, 2 mM dithiothreitol, 10 mM MgCl2, 0.2 mM EGTA); 5 μl of 50 mM ATP in distilled water, adjusted to pH 7.0 with NaOH; […] in distilled water; 15 μl of lmU/μl of Pseudomonas acyl CoA synthetase (Sigma) in 50 mM N-2-hydroxyethylpiperazine-N'-2-ethane sulfonic acid, pH 7.3; 2.5 μl of distilled water. The reaction was allowed to proceed for 20 minutes at 30° C. Typically, 40% to 50% of the [^3 H]fatty acid was converted to its CoA ester by this procedure as measured by determining the radioactivity remaining in the reaction after acidification with 6 N HCl to pH 2.0 and extraction 6 times with 5 volumes of heptane, a modification of the method of Hosaka et al., Meth. Enzymol. 71, 325-333 (1981). Fifty microliters of this reaction were added to tubes containing 40 μl of assay extraction buffer (see above) and 10 μl of 1 mM GlyAsnAlaAlaAlaAlaArgArg. The assay was initiated by the addition of 10 μl of yeast cell extract (typically 50 μg of protein) per tube, followed by incubation at 30° C. for 10 min. The assay was terminated by the addition of 110 μl of methanol and 10 μl of 100% trichloracetic acid (w/v) per tube, followed by cooling ten minutes on ice. Precipitated protein was removed by centrifugation at 8000 x g for 3 minutes in a tabletop Eppendorf centrifuge. (Under these conditions, 95% of synthetic [^3 H]myristoylpeptide or [^3 H]palmitoylpeptide remined soluble when added to an assay mixture.) Fifty microliters of the supernatant were mixed with 75 μl methanol and 75 μl of HPLC buffer A, and analyzed by reverse phase HPLC on a 3.9 mm by 30 cm Waters μ-Bondapak C18 column using the same HPLC buffers described above, starting at 35% acetonitrile and eluting with a 1% per minute acetonitrile gradient. One minute fractions were collected and the radioactivity in each fraction determined by liquid scintillation counting. [^3 H]Myristoyl-GlyAsnAlaAlaAlaAlaArgArg eluted at 24 minutes, while [^3 H]palmitoyl-GlyAsnAlaAlaAlaAlaArgArg eluted at 30 minutes.
Several octapeptides illustrating the present invention were synthesized by the solid phase Merrifield procedure essentially as described in Example 1 and then tested for activity as substrates or inhibitors for the myristoylating enzyme from yeast (S. cerevisiae strain JR153). The octapeptide substrate specificity of the enzyme was tested under the assay conditions described in Example 2 but using 1 μCi of [^3 H]- myristic acid per assay tube. The yeast enzyme used in this example was partially purified from a crude homogenate of the cultured yeast cells by fractionation with 51-70% (NH4)2 SO4 followed by ion exchange column chromatography with DEAE-Sepharose® CL-6B (Pharmacia) and affinity chromatography with CoA-agarose affinity matrix (Pharmacia).

Substrate in data set [2]: C[C@H](NC(=O)[C@H](C)NC(=O)[C@H](C)NC(=O)[C@H](CC(N)=O)NC(=O)CN)C(=O)N[C@@H](C)C(=O)N[C@@H](CCCNC(=N)N)C(=O)N[C@@H](CCCNC(=N)N)C(N)=O
The format is biochemical, Saccharomyces cerevisiae. The note with it: other: peptide as acyl acceptor, 1 μCi [3H]-myristic acid per tube, 30.0 °C. As to the method: as §1
as §2, with “The reaction was allowed to proceed for 20 minutes at 30° C.” left out, “Enzymol. 71, 325-333 (1981). Fifty microliters of this reaction were added to tubes containing 40 μl of assay extraction buffer (see above) and 10 μl of 1 mM GlyAsnAlaAlaAlaAlaArgArg. The assay was initiated by the addition of 10 μl of yeast cell extract (typically 50 μg of protein) per tube, followed by incubation at 30° C. for 10 min. The assay was terminated by the addition of 110 μl of methanol and 10 μl of 100% trichloracetic acid (w/v) per tube, followed by cooling ten minutes on ice. Precipitated protein was removed by centrifugation at 8000 x g for 3 minutes in a tabletop Eppendorf centrifuge.” left out, “[^3 H]Myristoyl-GlyAsnAlaAlaAlaAlaArgArg eluted at 24 minutes, while [^3 H]palmitoyl-GlyAsnAlaAlaAlaAlaArgArg eluted at 30 minutes.” left out

Substrate in data set [3]: CC(C)C[C@H](NC(=O)CN)C(=O)N[C@@H](C)C(=O)N[C@@H](C)C(=O)N[C@@H](C)C(=O)N[C@@H](C)C(=O)N[C@@H](CCCNC(=N)N)C(=O)N[C@@H](CCCNC(=N)N)C(N)=O
In kind it is biochemical, Saccharomyces cerevisiae. The note with it: other: peptide as acyl acceptor, 1 μCi [3H]-myristic acid per tube, 30.0 °C. The protocol:
as §1
as §2, with “The reaction was allowed to proceed for 20 minutes at 30° C.” left out, “Enzymol. 71, 325-333 (1981). Fifty microliters of this reaction were added to tubes containing 40 μl of assay extraction buffer (see above) and 10 μl of 1 mM GlyAsnAlaAlaAlaAlaArgArg. The assay was initiated by the addition of 10 μl of yeast cell extract (typically 50 μg of protein) per tube, followed by incubation at 30° C. for 10 min. The assay was terminated by the addition of 110 μl of methanol and 10 μl of 100% trichloracetic acid (w/v) per tube, followed by cooling ten minutes on ice. Precipitated protein was removed by centrifugation at 8000 x g for 3 minutes in a tabletop Eppendorf centrifuge.” left out, “[^3 H]Myristoyl-GlyAsnAlaAlaAlaAlaArgArg eluted at 24 minutes, while [^3 H]palmitoyl-GlyAsnAlaAlaAlaAlaArgArg eluted at 30 minutes.” left out

Substrate in data set [4]: CC(C)[C@H](NC(=O)CN)C(=O)N[C@@H](C)C(=O)N[C@@H](C)C(=O)N[C@@H](C)C(=O)N[C@@H](C)C(=O)N[C@@H](CCCNC(=N)N)C(=O)N[C@@H](CCCNC(=N)N)C(N)=O
In kind it is biochemical, Saccharomyces cerevisiae. The note with it: other: peptide as acyl acceptor, 1 μCi [3H]-myristic acid per tube, 30.0 °C. As to the method:
as §1
as §2, with “The reaction was allowed to proceed for 20 minutes at 30° C.” left out, “Enzymol. 71, 325-333 (1981). Fifty microliters of this reaction were added to tubes containing 40 μl of assay extraction buffer (see above) and 10 μl of 1 mM GlyAsnAlaAlaAlaAlaArgArg. The assay was initiated by the addition of 10 μl of yeast cell extract (typically 50 μg of protein) per tube, followed by incubation at 30° C. for 10 min. The assay was terminated by the addition of 110 μl of methanol and 10 μl of 100% trichloracetic acid (w/v) per tube, followed by cooling ten minutes on ice. Precipitated protein was removed by centrifugation at 8000 x g for 3 minutes in a tabletop Eppendorf centrifuge.” left out, “[^3 H]Myristoyl-GlyAsnAlaAlaAlaAlaArgArg eluted at 24 minutes, while [^3 H]palmitoyl-GlyAsnAlaAlaAlaAlaArgArg eluted at 30 minutes.” left out

The mark [5] stands for this setting: partially purified yeast enzyme.

Where no end group is shown, it is not given here.

The molecule “GVAAAARR-NH2 [Gly--Val--Ala--Ala--Ala--Ala--Arg--Arg]” came in with a Ki in data set [1] (setting [5]) of 60 µM. On the same count and under the same terms, the value for “GFAAAARR-NH2 [Gly--Phe--Ala--Ala--Ala--Ala--Arg--Arg, Gly-Phe-Ala-Ala-Ala-Ala-Arg-Argp]” was 150 µM. For “GNAAAARR-NH2 [Gly--Asn--Ala--Ala--Ala--Ala--Arg--Arg, Gly-Asn-Ala-Ala-Ala-Ala-Arg-Arg, reference compound]”, the Vmax in data set [1] (absolute Vmax, footnote to Table II) is 2840 pmol myristoyl peptide formed. Also, the “Relative Vmax (%)” value in data set [1] (relative to Gly-Asn-Ala-Ala-Ala-Ala-Arg-Arg = 100, partially purified yeast enzyme) is reported as 100%. In data set [1] (setting [5]), “GYAAAARR-NH2 [Gly--Tyr--Ala--Ala--Ala--Ala--Arg--Arg, Gly-Tyr-Ala-Ala-Ala-Ala-Arg-Arg]” had a Ki of 150 µM. Still for that read-out and setting: the value for “GLAAAARR-NH2 [Gly--Leu--Ala--Ala--Ala--Ala--Arg--Arg]” was 60 µM.

B1: myristoylating enzyme from yeast (N-myristoylglycylpeptide synthetase) (Saccharomyces cerevisiae S288C) (protein)
chain: MSEEDKAKKLENLLKLLQLNNDDTSKFTQEQKKAMKDHKFWRTQPVKDFDEKVVEEGPIDKPKTPEDISDKPLPLLSSFEWCSIDVDNKKQLEDVFVLLNENYVEDRDAGFRFNYTKEFFNWALKSPGWKKDWHIGVRVKETQKLVAFISAIPVTLGVRGKQVPSVEINFLCVHKQLRSKRLTPVLIKEITRRVNKCDIWHALYTAGIVLPAPVSTCRYTHRPLNWKKLYEVDFTGLPDGHTEEDMIAENALPAKTKTAGLRKLKKEDIDQVFELFKRYQSRFELIQIFTKEEFEHNFIGEESLPLDKQVIFSYVVEQPDGKITDFFSFYSLPFTILNNTKYKDLGIGYLYYYATDADFQFKDRFDPKATKALKTRLCELIYDACILAKNANMDVFNALTSQDNTLFLDDLKFGPGDGFLNFYLFNYRAKPITGGLNPDNSNDIKRRSNVGVVML
notes: partially purified from a crude homogenate of the cultured yeast cells by fractionation with 51-70% (NH4)2 SO4; endogenous in cells; host or cells: S. cerevisiae strain JR153; ammonium sulfate cut, DEAE-Sepharose CL-6B, CoA-agarose
B1: the Km turned out to be 60 µM in data set [2], 300 µM in data set [3] and 700 µM in data set [4].
